Source: patent US5726162A (priority 1996, dated 1998)
“And” between values parts separate entries of the source, which are not always exact repeats. Equal entries are not always repeated. Where two headings read alike, the source gives them in different places.

Legend:
Boytrytis cinerea = test: Tomato Botrytis protective experiments (single fungicides and combinations); format: in vivo, Boytrytis cinerea on Pixie tomato plants
Description: (§1) The experiments below were performed using the relevant following procedures.
(§2) Experimental compounds and commercial fungicides were tank mixed and mechanically sprayed at varying concentrations in a 1:1:2 mixture of acetone, methanol and water. Protective or preventive sprays were applied one day before spore inoculation. Curative or post-infection sprays were applied one day after spore inoculation. The spraying system utilized delivered a 200 ppm dose at the rate of 1458 liters per hectare. The following details were applicable for the specified diseases:
Three week-old "Pixie" tomato plants were inoculated with Boytrytis cinerea conidia. The plants were held in dim light for two days prior to inoculation. The spore concentration was 500,000 to 650,000 conidia per milliliter of dextrose solution. An atomizer was used to apply the conidial suspension in a heavy coating to near runoff to both the upper and lower leaf surfaces and to the plant stem. The plants were kept in a continuous mist chamber with a day-night cycle and at 20 degrees centigrade for 5 days.
(§3) "Disease control" was recorded as percent control based on a comparison of the unsprayed, inoculated controls and the treated, inoculated plants.

Pyricularia oryzae [1] = format: in vivo, Pyricularia oryzae on M-201 rice plants; conditions: protectant
Candida albicans = test: Activity against Candida albicans in microtiter plates, % control of growth; format: cell-based
Summary of the method: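 Mostly-conidia inoculum in yeast extract-dextrose broth, dispensed into microtiter wells; compound in 1:1 acetone:methanol added at 100 ppm, two replicates. Plates held 7 days at room temperature; percent growth control estimated visually at 1, 2, 3 and/or 7 days after treatment.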

[2] = system: Magnaporthe grisea (Pyricularia oryzae); test: whole plant or invertebrate; format: in vivo, Magnaporthe grisea (Pyricularia oryzae) on M201 rice plants; conditions: Pyricularia oryzae, 144 h, read-out: % Control RB
Pyricularia oryzae [3] = format: in vivo, Pyricularia oryzae on M-201 rice plants; conditions: curative
Septoria nodorum = test: Wheat Septoria preventative experiments (single fungicides and combinations); format: in vivo, Septoria nodorum on Fielder wheat plants
Description: as §1, §2
Fielder wheat plants were inoculated with Septoria nodorum conidia. The spore concentration was approximately 3,000,000 conidia per milliliter in water. An atomizer was used to apply twenty milliliters of inoculum to twenty plants per flat. The plants were placed in a humidity cabinet at 100% relative humidity for 72 hours and then placed in a greenhouse. Evaluations were made 10 days after inoculation.
as §3

fungal mycelium = test: organism not typed; format: cell-based; conditions: read-out: % growth inhibition
[4] = system: Thanatephorus cucumeris (Rhizoctonia solani); test: In vivo test b) Rice Sheath Blight (RSB), 24 hour preapplication protectant, % control; conditions: 200 ppm, protectant, read-out: % Control RSB
Description: Compounds were tested at 200 ppm as a twenty-four hour preapplication protectant test prior to inoculation.
b) Rice Sheath Blight (RSB)
Thanatephorus cucumeris (Rhizoctonia solani) mycelia were grown for six days in potato dextrose broth in shake culture. Drained mycelial mats were blended with an approximately equal weight of rice flour and five parts water. This slurry was dispensed onto the soil surface of pots containing rice seedlings previously treated with experimental compounds. The plants were placed in a mist chamber at 25°-28° C. for 48 hours. Following two more days at 25° C. and 70-90% relative humidity the plants were evaluated for percent disease control compared to check plants.

Compound	% Disease Control, Observed (Boytrytis cinerea; 50 ppm alone)	% Disease Control, Observed (Boytrytis cinerea; 200 ppm alone)	% Disease Control, Observed (Pyricularia oryzae [1]; 12 ppm alone)	% Disease Control, Observed (Pyricularia oryzae [1]; 50 ppm alone)	% Disease Control, Observed (Pyricularia oryzae [1]; 200 ppm alone)	inhibition of growth at 100 ppm (Candida albicans; 24 h, 1 day after treatment, read-out: % control of growth +1)	inhibition of growth at 100 ppm (Candida albicans; 48 h, 2 days after treatment, read-out: % control of growth +2)	inhibition of growth at 100 ppm (Candida albicans; 72 h, 3 days after treatment, read-out: % control of growth +3)	inhibition of growth at 100 ppm (Candida albicans; 168 h, 7 days after treatment, read-out: % control of growth +7)	pest or weed control at 200 ppm [2]	% Disease Control, Observed (Pyricularia oryzae [3]; 12 ppm alone)	% Disease Control, Observed (Pyricularia oryzae [3]; 50 ppm alone)	% Disease Control, Observed (Pyricularia oryzae [3]; 200 ppm alone)	% Disease Control, Observed (Septoria nodorum; 12 ppm alone)	% Disease Control, Observed (Septoria nodorum; 50 ppm alone)	% Disease Control, Observed (Septoria nodorum; 200 ppm alone)	inhibition at 1 ppm (fungal mycelium)	pest or weed control at 200 ppm [4]	% Disease Control, Observed (Boytrytis cinerea; 6 ppm alone)	% Disease Control, Observed (Boytrytis cinerea; 25 ppm alone)
CCC#CCn1nc(-c2ccc(Cl)cc2)ccc1=O [Compound 109, 6-(4-chlorophenyl)-2-(2'-pentynyl)pyridazinone]	0%	75%	0%	0%	99% and 80%	100%	100%	100%	100%	99%	0%	50%	80%	0%	50%	50%	100%	100%	–	–
N#CC(CCc1ccc(Cl)cc1)(Cn1cncn1)c1ccccc1 (stereo not drawn) [fenbuconazole, alpha-[2-(4-chlorophenyl)ethyl]-alpha-phenyl-1H-1,2,4-triazole-1-propanenitrile]	75%	–	–	–	–	–	–	–	–	–	–	–	–	–	–	–	–	–	50%	75%
